Laboratory results as given in ChEMBL document CHEMBL5154688, “Design, Synthesis, and Characterization of I-BET567, a Pan-Bromodomain and Extra Terminal (BET) Bromodomain Oral Candidate” (J Med Chem, 2022).
Activity calls are given as the source filed them. The calls are words filed in the database; no cut-off is given here.

Key:
[1] = Intrinsic clearance in rat hepatocytes after 60 mins by LC-MS/MS analysis; format: ADME, cell-based, Hepatocyte; settings: 1 h
Mus musculus [2] = experiment: Antiinflammatory activity in KLH-TNP-induced T-cell dependent immunization CD-1 mouse model assessed as reduction in circulating IgG1 at 30 mg/kg, po administered daily for 14 days followed by administration of KLH-TNP after 1 hr; format: functional; settings: CD-1, T-cell, 336 h, time 14 day
[3] = Unbound Cmax in SCID mouse xenografted with human NMC 11060 cells at 3 to 30 mg/kg, po for 20 days; format: ADME, organism-based; settings: in vivo, 480 h, dose 3-30 mg/kg, time 20 day
[4] = Terminal half life in Wistar Han rat blood at 3 mg/kg, po or 1.3 mg/kg, iv measured upto 24 hrs by LC-MS/MS analysis; format: ADME, organism-based; settings: read-out: beta t1/2 (converted)
C-C motif chemokine 2 = C-C motif chemokine 2 (Homo sapiens, UniProt P13500); experiment: Inhibition of MCP-1 in LPS-stimulated human whole blood incubate for 24 hrs by immuno assay; format: tissue-based
C-C motif chemokine 2, sequence (P13500 whole entry): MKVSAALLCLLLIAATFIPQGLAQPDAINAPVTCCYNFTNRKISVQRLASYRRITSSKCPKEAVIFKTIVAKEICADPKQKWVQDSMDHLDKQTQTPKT

[5] = molecular target: Bromodomain testis-specific protein (Homo sapiens, UniProt Q58F21); experiment: Binding affinity to BRDT BD1 (unknown origin) assessed as dissociation constant
[6] = molecular target: Bromodomain-containing protein 3 (Homo sapiens, UniProt Q15059); experiment: Binding affinity to BRD3 BD1 (unknown origin) assessed as dissociation constant
Bromodomain-containing protein 3, sequence (Q15059 whole entry): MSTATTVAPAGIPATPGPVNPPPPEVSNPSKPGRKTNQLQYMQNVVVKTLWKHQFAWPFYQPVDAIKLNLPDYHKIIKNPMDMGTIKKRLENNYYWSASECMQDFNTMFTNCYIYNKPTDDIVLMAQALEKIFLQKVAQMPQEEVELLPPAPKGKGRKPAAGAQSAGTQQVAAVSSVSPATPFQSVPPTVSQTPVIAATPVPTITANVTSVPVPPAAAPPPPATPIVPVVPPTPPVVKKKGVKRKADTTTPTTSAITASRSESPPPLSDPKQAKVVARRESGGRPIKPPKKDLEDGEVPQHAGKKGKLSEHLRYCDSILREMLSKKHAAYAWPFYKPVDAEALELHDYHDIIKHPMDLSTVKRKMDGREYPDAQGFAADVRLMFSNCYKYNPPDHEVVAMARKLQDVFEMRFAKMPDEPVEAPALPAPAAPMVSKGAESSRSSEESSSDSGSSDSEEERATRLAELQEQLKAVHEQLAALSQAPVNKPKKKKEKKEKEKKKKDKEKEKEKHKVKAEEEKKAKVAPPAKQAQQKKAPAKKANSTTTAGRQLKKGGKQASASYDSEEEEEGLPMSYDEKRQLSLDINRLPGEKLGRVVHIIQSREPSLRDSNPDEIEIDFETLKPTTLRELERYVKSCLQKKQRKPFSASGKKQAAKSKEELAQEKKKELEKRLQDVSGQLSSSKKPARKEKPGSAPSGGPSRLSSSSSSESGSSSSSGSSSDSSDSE

[7] = Antineoplastic activity against human NMC 11060 cells xenografted in SCID mouse assessed as reduction in tumor volume at 30 mg/kg, po for 20 days measured at 17 days of post randomization relative to control; format: functional; settings: NMC 11060 cell, 480 h, time 20 day
[8] = Renal clearance in Beagle dog at 3 mg/kg, po or 1.0 mg/kg, iv by LC-MS/MS analysis; format: ADME, organism-based, Canis lupus familiaris; settings: in vivo
Mus musculus [9] = experiment: Antiinflammatory activity in KLH-TNP-induced T-cell dependent immunization CD-1 mouse model assessed as reduction in circulating IgG1 at 30 mg/kg, po administered every other day for 14 days followed by administration of KLH-TNP after 1 hr; format: functional; settings: CD-1, T-cell, 336 h, time 14 day
[10] = Antineoplastic activity against human NMC 11060 cells xenografted in SCID mouse assessed as reduction in tumor volume at 10 mg/kg, po for 20 days measured at 8 days of post randomization relative to control; format: functional; settings: NMC 11060 cell, 480 h, time 20 day
[11] = Antineoplastic activity against human NMC 11060 cells xenografted in SCID mouse assessed as reduction in tumor volume at 10 mg/kg, po for 20 days measured at 10 days of post randomization relative to control; format: functional; settings: NMC 11060 cell, 480 h, time 20 day
[12] = Intrinsic clearance in dog hepatocytes incubated upto 45 mins by LC-MS/MS analysis; format: ADME, cell-based, Canis lupus familiaris, Hepatocyte; settings: 0.75 h
[13] = molecular target: Bromodomain-containing protein 2 (Homo sapiens, UniProt P25440); experiment: Binding affinity to BRD2 BD1 (unknown origin) assessed as dissociation constant
Bromodomain-containing protein 2, sequence (P25440 whole entry): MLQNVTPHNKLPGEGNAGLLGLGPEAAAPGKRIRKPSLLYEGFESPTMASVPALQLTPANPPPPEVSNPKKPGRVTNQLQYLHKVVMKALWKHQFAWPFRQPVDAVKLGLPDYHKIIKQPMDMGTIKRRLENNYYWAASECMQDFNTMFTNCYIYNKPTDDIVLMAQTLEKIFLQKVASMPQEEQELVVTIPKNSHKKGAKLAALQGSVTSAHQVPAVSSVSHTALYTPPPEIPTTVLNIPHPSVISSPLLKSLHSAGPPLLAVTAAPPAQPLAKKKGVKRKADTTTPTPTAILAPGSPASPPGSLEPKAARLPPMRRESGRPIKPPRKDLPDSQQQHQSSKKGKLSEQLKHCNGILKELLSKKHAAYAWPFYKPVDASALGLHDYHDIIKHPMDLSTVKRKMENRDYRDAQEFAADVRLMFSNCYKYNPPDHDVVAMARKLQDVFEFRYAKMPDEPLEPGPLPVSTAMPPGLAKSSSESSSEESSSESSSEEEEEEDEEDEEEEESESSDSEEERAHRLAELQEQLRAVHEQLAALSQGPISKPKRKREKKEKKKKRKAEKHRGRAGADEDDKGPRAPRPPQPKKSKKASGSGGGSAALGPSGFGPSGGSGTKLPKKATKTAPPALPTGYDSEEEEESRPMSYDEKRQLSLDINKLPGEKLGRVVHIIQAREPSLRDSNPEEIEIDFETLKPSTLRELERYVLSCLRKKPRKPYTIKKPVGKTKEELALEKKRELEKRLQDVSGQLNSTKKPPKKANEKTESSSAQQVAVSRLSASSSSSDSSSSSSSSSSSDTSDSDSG

[14] = Renal clearance in Wistar Han rat assessed as ratio/proportion of renal elimination to total clearance at 3 mg/kg, po or 1.3 mg/kg, iv measured upto 24 hrs by LC-MS/MS analysis; format: ADME, organism-based; settings: in vivo
[15] = AUC(0 to 72 hrs) in KLH-TNP-induced T-cell dependent immunization CD-1 mouse model at 30 mg/kg, po administered daily for 14 days; format: ADME, organism-based; design: dose 30 mg/kg, time 14 day, route po; settings: in vivo
[16] = Antiproliferative activity against human NMC 11060 cells assessed as inhibition of proliferation; format: functional, cell-based; settings: NUT midline carcinoma
[17] = Cmax in KLH-TNP-induced T-cell dependent immunization CD-1 mouse model at 30 mg/kg, po administered every other day for 14 days; format: ADME, organism-based; design: dose 30 mg/kg, time 14 day, route po; settings: in vivo
[18] = molecular target: T1, Bromodomain-containing protein 4 (Homo sapiens, UniProt O60885); experiment: Binding affinity to BRD4 BD2 (unknown origin) assessed as dissociation constant
[19] = Unbound fraction in Beagle dog blood at 3 mg/kg, po or 1.0 mg/kg, iv by LC-MS/MS analysis; format: ADME, organism-based, Canis lupus familiaris
CREB-binding protein = CREB-binding protein (Homo sapiens, UniProt Q92793); experiment: Binding affinity to CREBBP (unknown origin) assessed as dissociation constant
CREB-binding protein, sequence (Q92793 whole entry): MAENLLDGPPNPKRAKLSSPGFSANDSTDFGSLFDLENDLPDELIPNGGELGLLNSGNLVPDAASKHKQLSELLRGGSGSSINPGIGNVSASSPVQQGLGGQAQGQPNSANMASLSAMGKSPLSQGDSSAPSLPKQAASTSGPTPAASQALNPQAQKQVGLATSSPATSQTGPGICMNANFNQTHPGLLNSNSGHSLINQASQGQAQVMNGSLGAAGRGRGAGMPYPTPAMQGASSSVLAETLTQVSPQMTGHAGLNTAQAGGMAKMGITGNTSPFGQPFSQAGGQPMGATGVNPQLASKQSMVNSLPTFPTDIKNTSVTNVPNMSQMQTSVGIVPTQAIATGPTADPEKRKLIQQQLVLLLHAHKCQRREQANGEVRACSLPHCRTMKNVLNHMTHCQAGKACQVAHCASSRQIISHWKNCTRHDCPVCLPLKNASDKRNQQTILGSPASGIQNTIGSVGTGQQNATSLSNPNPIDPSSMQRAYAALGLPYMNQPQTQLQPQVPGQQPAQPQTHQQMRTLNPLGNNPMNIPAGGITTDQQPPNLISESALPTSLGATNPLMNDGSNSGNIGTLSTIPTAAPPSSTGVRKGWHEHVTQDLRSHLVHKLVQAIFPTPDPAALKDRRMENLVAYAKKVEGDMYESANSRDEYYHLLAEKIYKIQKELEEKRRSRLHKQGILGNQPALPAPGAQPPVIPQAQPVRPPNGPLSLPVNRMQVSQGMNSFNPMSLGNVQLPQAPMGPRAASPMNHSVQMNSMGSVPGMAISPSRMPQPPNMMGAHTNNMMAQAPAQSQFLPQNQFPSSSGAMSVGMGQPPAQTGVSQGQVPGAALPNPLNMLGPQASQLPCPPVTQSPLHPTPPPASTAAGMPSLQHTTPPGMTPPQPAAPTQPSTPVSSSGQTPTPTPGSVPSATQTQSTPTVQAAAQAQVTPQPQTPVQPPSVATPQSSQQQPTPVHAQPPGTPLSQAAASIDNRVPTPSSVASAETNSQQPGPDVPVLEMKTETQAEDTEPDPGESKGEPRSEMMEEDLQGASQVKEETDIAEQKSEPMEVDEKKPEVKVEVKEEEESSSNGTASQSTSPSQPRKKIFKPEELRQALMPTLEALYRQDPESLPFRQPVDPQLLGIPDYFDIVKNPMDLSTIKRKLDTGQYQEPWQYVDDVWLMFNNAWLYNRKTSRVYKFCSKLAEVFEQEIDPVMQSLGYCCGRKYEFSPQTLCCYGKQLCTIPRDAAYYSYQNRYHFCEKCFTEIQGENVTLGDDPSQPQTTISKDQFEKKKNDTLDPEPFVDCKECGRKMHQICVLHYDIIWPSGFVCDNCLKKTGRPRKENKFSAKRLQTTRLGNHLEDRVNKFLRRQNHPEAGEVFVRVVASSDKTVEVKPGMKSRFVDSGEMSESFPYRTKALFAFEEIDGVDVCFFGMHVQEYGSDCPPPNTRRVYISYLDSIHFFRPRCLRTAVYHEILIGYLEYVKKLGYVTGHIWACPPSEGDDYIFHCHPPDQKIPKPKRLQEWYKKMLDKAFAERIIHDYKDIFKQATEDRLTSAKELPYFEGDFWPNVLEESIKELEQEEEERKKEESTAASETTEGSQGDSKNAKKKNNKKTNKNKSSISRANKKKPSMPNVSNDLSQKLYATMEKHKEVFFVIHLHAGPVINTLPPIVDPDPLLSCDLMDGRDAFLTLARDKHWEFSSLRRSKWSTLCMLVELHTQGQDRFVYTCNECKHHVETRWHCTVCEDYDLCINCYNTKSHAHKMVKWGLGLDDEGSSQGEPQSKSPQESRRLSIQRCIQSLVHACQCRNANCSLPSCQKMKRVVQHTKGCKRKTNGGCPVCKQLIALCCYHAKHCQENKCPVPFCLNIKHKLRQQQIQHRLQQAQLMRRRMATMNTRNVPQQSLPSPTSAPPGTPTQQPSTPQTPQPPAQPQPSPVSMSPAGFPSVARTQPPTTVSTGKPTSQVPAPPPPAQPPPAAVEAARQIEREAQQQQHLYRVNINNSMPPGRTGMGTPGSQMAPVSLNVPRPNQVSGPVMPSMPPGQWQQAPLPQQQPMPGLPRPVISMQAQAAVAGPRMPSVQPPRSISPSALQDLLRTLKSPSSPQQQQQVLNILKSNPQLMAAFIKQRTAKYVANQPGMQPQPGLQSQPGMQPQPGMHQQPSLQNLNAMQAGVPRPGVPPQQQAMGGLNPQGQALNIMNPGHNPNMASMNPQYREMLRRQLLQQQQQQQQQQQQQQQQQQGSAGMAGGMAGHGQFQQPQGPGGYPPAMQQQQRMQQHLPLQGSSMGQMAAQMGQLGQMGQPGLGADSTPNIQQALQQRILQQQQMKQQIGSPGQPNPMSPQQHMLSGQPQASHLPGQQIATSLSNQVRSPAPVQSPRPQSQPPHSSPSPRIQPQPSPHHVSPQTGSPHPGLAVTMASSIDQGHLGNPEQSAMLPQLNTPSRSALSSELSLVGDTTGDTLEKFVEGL

[20] = Antineoplastic activity against human NMC 11060 cells xenografted in SCID mouse assessed as reduction in tumor volume at 30 mg/kg, po for 20 days measured at 8 days of post randomization relative to control; format: functional; settings: NMC 11060 cell, 480 h, time 20 day
[21] = Toxicity in SCID mouse xenografted with human NMC 11060 cells assessed as loss of body weight at 30 mg/kg, po for 20 days; format: organism-based; settings: in vivo, 480 h, time 20 day
[22] = Artificial membrane permeability of the compound; format: ADME; settings: PAMPA; read-out: permeability
[23] = Unbound volume of distribution at steady state in Wistar Han rat blood at 3 mg/kg, po or 1.3 mg/kg, iv measured upto 24 hrs by LC-MS/MS analysis; format: ADME, organism-based; settings: in vivo
[24] = AUC(0 to 72 hrs) in KLH-TNP-induced T-cell dependent immunization CD-1 mouse model at 30 mg/kg, po administered every other day for 14 days; format: ADME, organism-based; design: dose 30 mg/kg, time 14 day, route po; settings: in vivo
[25] = Antineoplastic activity against human NMC 11060 cells xenografted in SCID mouse assessed as reduction in tumor volume at 3 to 30 mg/kg, po for 20 days; format: functional, NUT midline carcinoma; design: scale not given: the % may be the effect or the level left; settings: dose 3-30 mg/kg, time 20 day
[26] = molecular target: T1, Bromodomain-containing protein 4; experiment: Inhibition of BRD4 BD1 (unknown origin) incubated for 30 mins in presence of fluorescent ligand by TR-FRET method
[27] = Volume of distribution at steady state in Wistar Han rat blood at 3 mg/kg, po or 1.3 mg/kg, iv measured upto 24 hrs by LC-MS/MS analysis; format: ADME, organism-based; settings: in vivo
[28] = Antineoplastic activity against human NMC 11060 cells xenografted in SCID mouse assessed as reduction in tumor volume at 10 mg/kg, po for 20 days measured at 3 days of post randomization relative to control; format: functional; settings: NMC 11060 cell, 480 h, time 20 day
[29] = Unbound fraction in Wistar Han rat blood at 3 mg/kg, po or 1.3 mg/kg, iv measured upto 24 hrs by LC-MS/MS analysis; format: ADME, organism-based
[30] = Antineoplastic activity against human NMC 11060 cells xenografted in SCID mouse assessed as reduction in tumor volume at 10 mg/kg, po for 20 days measured at 17 days of post randomization relative to control; format: functional; settings: NMC 11060 cell, 480 h, time 20 day
NUT midline carcinoma = experiment: Antineoplastic activity against human NMC 11060 cells xenografted in SCID mouse assessed as reduction in tumor growth at 3 to 30 mg/kg, po for 20 days; format: functional, organism-based; settings: dose 3-30 mg/kg, time 20.0 day
[31] = Volume of distribution at steady state in Beagle dog blood at 3 mg/kg, po or 1.0 mg/kg, iv by LC-MS/MS analysis; format: ADME, organism-based, Canis lupus familiaris; settings: in vivo
[32] = Antineoplastic activity against human NMC 11060 cells xenografted in SCID mouse assessed as reduction in tumor volume at 30 mg/kg, po for 20 days measured at 6 days of post randomization relative to control; format: functional; settings: NMC 11060 cell, 480 h, time 20 day
[33] = Toxicity in SCID mouse xenografted with human NMC 11060 cells assessed as tolerability at 3 to 30 mg/kg, po for 20 days; format: organism-based; settings: in vivo, 480 h, dose 3-30 mg/kg, time 20 day

CC(=O)N1c2ccc(C(N)=O)cc2[C@H](Nc2ncc(Cl)cn2)C[C@@H]1C
CLH [1]: < 0.8 mL/min/g | inhibition in vivo at 30 mg/kg (Mus musculus [2]): 98% | fCmax [3]: 2 µM | half-life [4]: 1.6 h | IC50 (C-C motif chemokine 2): 0.2 µM | Kd [5]: 0.0251 µM | Kd [6]: 0.0251 µM | inhibition in vivo at 30 mg/kg [7]: 93% | CL renal [8]: 6.9 mL/min/kg | inhibition in vivo at 30 mg/kg (Mus musculus [9]): 93% | inhibition in vivo at 10 mg/kg [10]: 62% | inhibition in vivo at 10 mg/kg [11]: 69% | CLH [12]: < 1.26 mL/min/g | Kd [13]: 0.0398 µM | Ratio [14]: 28% | AUC at 336 h [15]: 103 µM·h | IC50 [16]: 0.63 µM | Cmax [17]: 8.5 µM | Kd [18]: 0.00501 µM | fraction unbound [19]: 0.41 | Kd (CREB-binding protein): 2.51 µM | inhibition in vivo at 30 mg/kg [20]: 85% | Activity [21]: 19.6% | Papp [22]: 6.8 ×10⁻⁶ cm/s | Vduss [23]: 10.4 L/kg | AUC at 336 h [24]: 69 µM·h | Activity [25]: >50% | IC50 [26]: 0.126 µM | Vdss [27]: 2.4 L/kg | inhibition in vivo at 10 mg/kg [28]: 45% | fraction unbound at 24 h [29]: 0.23 | inhibition in vivo at 10 mg/kg [30]: 59% | Activity (NUT midline carcinoma): Active | Vdss [31]: 1.2 L/kg | inhibition in vivo at 30 mg/kg [32]: 70% | Activity [33]: Non-Toxic
